PMC10208570, “Peptidomimetic antibiotics disrupt the lipopolysaccharide transport bridge of drug-resistant Enterobacteriaceae” (Science Advances, 2023)
≈ marks a conversion by molar mass, not a printed value. Where a SMILES comes first, the peptide text is derived from it. Bridges are numbered along the chain shown (N, C = ends). [ ]: non-standard residue; d: D form. Hyp = O=C(O)[C@@H]1C[C@@H](O)CN1; Pen = CC(C)(S)[C@H](N)C(=O)O; dDab = NCC[C@@H](N)C(=O)O; Nle = CCCC[C@H](N)C(=O)O; Dab = NCC[C@H](N)C(=O)O

How the values were obtained:
LptAm = molecular target: T1, LptAm (Escherichia coli, UniProt P0ADV1); assay: biochemical; format: binding, E. coli
T1 construct: His6-GB1 (N, cleaved yes); made in house; host or cells: E. coli BL21 (DE3)
T1 sequence (P0ADV1 28-159): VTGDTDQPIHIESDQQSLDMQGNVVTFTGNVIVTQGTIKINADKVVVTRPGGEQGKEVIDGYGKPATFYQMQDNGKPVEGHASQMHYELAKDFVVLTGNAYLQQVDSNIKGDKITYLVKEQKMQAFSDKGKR
Description: (§1) Protein stocks were purified and concentrated in buffer 1 [50 mM Na-Pi (pH 7) and 150 mM NaCl] and, if necessary, diluted to desired concentrations using buffer 2 [50 mM Na-Pi (pH 7), 150 mM NaCl, and 0.05% Tween 20]. Peptide stocks and fluorescently labeled peptide stocks were made in buffer 2. Every serial dilution consisted of 24 wells, the first well with the highest concentrate and the last well (well 24) with the lowest. First, 50 μl of buffer 2 was added to the wells 2 to 24 of each serial dilution. Then, 100 μl of concentrated unlabeled peptide/protein in their respective buffers was added to the first well. Fifty microliters were taken from the first well and added to the second well for a 1:1 serial dilution and continued for the 24 wells. […] Plates were covered with adhesive seals and left to incubate overnight at 4°C before FP measurements the next day. Anisotropy was measured using the Tecan Safire2 plate reader using a 10-nm bandwidth and setting the excitation and emission wavelengths to 635 and 670 nm, respectively. The G-factor (G) was also determined empirically as 1.094 for the instrument and included in all the anisotropy calculations.
(§2) For the indirect binding assays, r was calculated in the same manner as the direct binding assays. […] The control was subtracted from r to yield r′. Data were fit to a sigmoidal interpolation model on GraphPad Prism 9, and an IC50 was generated for each unlabeled peptide or protein measured.

LptAmQ62L = molecular target: T2, LptAmQ62L (Escherichia coli, UniProt P0ADV1, Q62L); assay: biochemical; format: binding, E. coli
T2 construct: His6-GB1 (N, cleaved yes); made in house; host or cells: E. coli BL21 (DE3)
T2 sequence (P0ADV1 28-159 Q62L): as the sequence (P0ADV1 28-159) above, with Q35L counted along it
Description: as §1, §2

Plasma protein binding [1] = format: in vitro ADME, human; details: human, plasma, pH 7.5
Description: (§3) After ultrafiltration, protein binding was determined by subtracting the percentage of compound in ultrafiltrate from the total amount of compound in spiked plasma (table S4A).

human red blood cells = assay: Haemolysis; format: cell-based; details: PBS-washed human red blood cells; 1 h at 200 mg/liter, 37°C; OD 540 nm; versus 100% lysis control 2.5% Triton X-100; biological replicates
Description: To test their hemolytic potential, compounds were incubated in the presence of phosphate-buffered saline (PBS)–washed human red blood cells. After 1-hour incubation at 200 mg/liter and 37°C, the samples were centrifuged (3220g), the supernatants were diluted in Dulbecco’s PBS, and optical density at 540 nm was determined. The hemolysis induced by the compound was calculated versus a 100% lysis control prepared with 2.5% Triton X-100 (table S4A).

Plasma protein binding [2] = format: in vitro ADME, mouse; details: mouse, plasma, pH 7.5
Description: as §3

[3] = test system: E. coli ATCC 25922 (parent / WT); assay: microbe, parasite or virus in culture; details: for MIC E. coli ATCC 25922 Parent: CLSI method, parent strain
Description: (§4) MIC assays [Clinical and Laboratory Standards Institute (CLSI) methodology] and serial passage studies were performed as described by Luther et al. ([6]). […] Resistant mutants were isolated, and their MIC values were determined and sent to Microbes NG (Birmingham, United Kingdom) for whole-genome sequencing and bioinformatic analysis.

[4] = test system: K. pneumoniae ATCC 43816 (parent / WT); assay: microbe, parasite or virus in culture; details: ATCC 43816
Description: as §4

[5] = test system: E. coli ATCC 25922 LptA Q62L mutant; assay: microbe, parasite or virus in culture; details: CLSI method; clone harboring LptA Q62L
Description: as §4

[6] = test system: K. pneumoniae NCTC 13443 (NDM-1) (parent / WT); assay: microbe, parasite or virus in culture; details: CLSI method; parent strain
Description: as §4

[7] = test system: K. pneumoniae NCTC 13443 (NDM-1) LptA Q62L mutant; assay: microbe, parasite or virus in culture; details: for MIC K. pneumoniae NCTC 13443 (NDM-1) Q62L mutant: CLSI method, clone harboring LptA Q62L
Description: as §4

in vitro = format: cell-based; details: human
Description: The cytotoxicity of compounds was determined by determining the number of viable cells using the Sigma Cell Counting Kit-8 (WST-8). HeLa cells were incubated at 37°C and 5% CO2 for 24 hours, after which the medium was replaced with fresh medium containing dilutions of compounds. […]

[8] = test system: Klebsiella pneumoniae ATCC 43816 LapB mutant; assay: microbe, parasite or virus in culture; details: Table S9 panel; other mutation
Description: as §4

[9] = test system: Klebsiella pneumoniae NCTC 13443 YejM mutant; assay: microbe, parasite or virus in culture; details: Table S9 panel; other mutation
Description: as §4

[10] = test system: Escherichia coli ATCC 25922 KdsD mutant; assay: microbe, parasite or virus in culture; details: Table S9 panel; other mutation
Description: as §4

[11] = test system: Klebsiella pneumoniae NCTC 13443 LpxC, LpxD mutant; assay: microbe, parasite or virus in culture; details: Table S9 panel; other mutation
Description: as §4

[12] = test system: Klebsiella pneumoniae ATCC 43816 PglJ, PhnJ, ThiH mutant; assay: microbe, parasite or virus in culture; details: Table S9 panel; other mutation
Description: as §4

[13] = test system: Klebsiella pneumoniae ATCC 43816 LptA I36S mutant; assay: microbe, parasite or virus in culture; details: Table S9 panel
Description: as §4

[14] = test system: Klebsiella pneumoniae NCTC 13443 LptA I36S mutant; assay: microbe, parasite or virus in culture; details: Table S9 panel
Description: as §4

[15] = test system: Klebsiella pneumoniae ATCC 43816 LptA L116Q mutant; assay: microbe, parasite or virus in culture; details: Table S9 panel
Description: as §4

[16] = test system: Klebsiella pneumoniae ATCC 43816 LptA I36N mutant; assay: microbe, parasite or virus in culture; details: Table S9 panel
Description: as §4

[17] = test system: K. pneumoniae ATCC 43816 LptA Q62L mutant; assay: microbe, parasite or virus in culture; details: Table S9 panel
Description: as §4

[18] = test system: Escherichia coli ATCC 25922 LptA E84D mutant; assay: microbe, parasite or virus in culture; details: Table S9 panel
Description: as §4

Row | SMILES | IC50 (LptAm) [µM] | Ki (LptAm) [µM] | IC50 (LptAmQ62L) [µM] | Ki (LptAmQ62L) [µM] | fraction unbound at 30 min, 10 mg/liter (Plasma protein binding [1]) | Haemolysis % at 0.2 g/L (human red blood cells) [%] | fraction unbound at 30 min, 10 mg/liter (Plasma protein binding [2]) | MIC E. coli ATCC 25922 Parent [3] [micrograms per milliliter] | MIC K. pneumoniae ATCC 43816 Parent [4] [micrograms per milliliter] | MIC E. coli ATCC 25922 Q62L mutant [5] [micrograms per milliliter] | MIC K. pneumoniae NCTC 13443 (NDM-1) Parent [6] [micrograms per milliliter] | MIC K. pneumoniae NCTC 13443 (NDM-1) Q62L mutant [7] [micrograms per milliliter] | IC50 at 48 h (in vitro) [µM] | also measured
1 | CCCC[C@H](NC(=O)[C@H](CCCNC(=N)N)NC(=O)[C@H](CCN)NC(=O)[C@@H]1CSSC[C@H](NC(=O)[C@H](Cc2ccc(O)cc2)NC(=O)[C@@H](NC(=O)[C@@H](NC(=O)[C@@H]2CCCN2C(=O)[C@@H](NC(=O)[C@@H]2CCCN2C(=O)[C@H](CCCCN)NC(=O)[C@@H](N)CCCCN)C(C)C)[C@@H](C)CC)[C@@H](C)CC)C(=O)N[C@@H](CC(N)=O)C(=O)N[C@@H](CCCNC(=N)N)C(=O)N[C@@H](CCCNC(=N)N)C(=O)N[C@@H]([C@@H](C)O)C(=O)NCC(=O)N[C@@H](CCCCN)C(=O)N1)C(=O)O [Compound 1] (H-KKPVPIIYCNRRTGKC[Dab]R[Nle]-OH; disulfide 9-16) | 0.0066 ± 0.0005 | 0.0011 ± 0.0001 | 0.0304 ± 0.0088 | 0.0205 ± 0.006 | 0.24 | 0 | 0.14 | 0.063 | 0.25 | >8 | 0.5 | >8 | 158 | –
2 | CC[C@H](C)[C@H](NC(=O)[C@@H](NC(=O)[C@@H]1C[C@@H](O)CN1C(=O)[C@@H](N)C(C)C)[C@@H](C)CC)C(=O)N[C@@H](Cc1ccc(O)cc1)C(=O)N[C@@H]1C(=O)N[C@@H](CC(N)=O)C(=O)N[C@@H](CCCNC(=N)N)C(=O)N[C@@H](CCN)C(=O)N[C@@H]([C@@H](C)O)C(=O)N[C@H](CCN)C(=O)N[C@@H](CCCCN)C(=O)N[C@H](C(=O)N[C@@H](CCN)C(=O)N[C@@H](CCCNC(=N)N)C(=O)N[C@@H](Cc2ccc(O)cc2)C(=O)O)CSSC1(C)C [Compound 4] (H-V[Hyp]IIY[Pen]NR[Dab]T[dDab]KC[Dab]RY-OH; disulfide 6-13) | – | – | – | – | 0.09 | 0 | 0.14 | 0.063 | 0.25 | 0.25 | 1 | 4 | 536 | –
3 | CC[C@H](C)[C@H](NC(=O)[C@@H](NC(=O)[C@@H]1C[C@@H](O)CN1C(=O)[C@@H](N)C(C)C)[C@@H](C)CC)C(=O)N[C@@H](Cc1ccc(O)cc1)C(=O)N[C@@H]1C(=O)N[C@@H](CC(N)=O)C(=O)N[C@@H](CCCNC(=N)N)C(=O)N[C@@H](CCN)C(=O)N[C@@H]([C@@H](C)O)C(=O)N[C@H](CCN)C(=O)N[C@@H](CCCCN)C(=O)N[C@H](C(=O)N[C@@H](CCN)C(=O)N[C@@H](CCN)C(=O)N[C@@H](Cc2ccc(O)cc2)C(=O)O)CSSC1(C)C [Compound 5] (H-V[Hyp]IIY[Pen]NR[Dab]T[dDab]KC[Dab][Dab]Y-OH; disulfide 6-13) | 0.0186 ± 0.0011 | 0.0031 ± 0.0002 | 0.0139 ± 0.0023 | 0.0094 ± 0.0015 | 0.18 | 0 | 0.13 | 0.063 | 0.25 | 0.25 | 1 | 4 | 1270 | MIC Escherichia coli ATCC 25922 WT ([3]; Table S9 panel, WT): 0.125 µg/mL (≈ 0.0653 µM); MIC Klebsiella pneumoniae ATCC 43816 LapB (1x) [8]: 0.5 µg/mL (≈ 0.261 µM); MIC Klebsiella pneumoniae NCTC 13443 YejM (1x) [9]: 2 µg/mL (≈ 1.04 µM); MIC Escherichia coli ATCC 25922 KdsD (2x) [10]: 0.5 µg/mL (≈ 0.261 µM); MIC Klebsiella pneumoniae NCTC 13443 LpxC, LpxD (1x) [11]: 0.5 µg/mL (≈ 0.261 µM); MIC Klebsiella pneumoniae NCTC 13443 LptA Q62L (5x) ([7]; Table S9 panel): 8 µg/mL (≈ 4.18 µM); MIC Klebsiella pneumoniae ATCC 43816 PglJ, PhnJ, ThiH (1x) [12]: 0.5 µg/mL (≈ 0.261 µM); MIC Klebsiella pneumoniae ATCC 43816 LptA I36S (1x) [13]: 1 µg/mL (≈ 0.522 µM); MIC Klebsiella pneumoniae NCTC 13443 LptA I36S (2x) [14]: 4 µg/mL (≈ 2.09 µM); MIC Klebsiella pneumoniae ATCC 43816 LptA L116Q (1x) [15]: 1 µg/mL (≈ 0.522 µM); MIC Klebsiella pneumoniae ATCC 43816 LptA I36N (1x) [16]: 1 µg/mL (≈ 0.522 µM); MIC Klebsiella pneumoniae ATCC 43816 LptA Q62L (4x) [17]: 4 µg/mL (≈ 2.09 µM); MIC Escherichia coli ATCC 25922 LptA E84D (1x) [18]: 1 µg/mL (≈ 0.522 µM)
